Experimental data from patent US20090148546A1, “Methods and compounds fo rthe treatment of obesity and obesity-related disorders” (priority 2005, published 2009).

Test system: 3T3-L1 cells
Assay: Adipogenesis: differentiation of 3T3-L1 cells into adipocytes, oil red-O staining
Format: cell-based, mouse
Settings: 10 days
From the text: It is reported here for the first time that capsaicin is a potent inhibitor of adipogenesis. The accepted model for the process of adipogenesis is the differentiation of mouse-derived 3T3-L1 fibroblasts into adipocytes after treatment with potent inducers such as dexamethasone, isobutyrylmethylxanthine, and insulin. In this model, the adipocytes are identified by the accumulation of lipid droplets in the cytoplasm. We tested the effect of the presence or absence of capsaicin on this process.
NIH 3T3-L1 cells were obtained from American Type Culture Collection (Manassas, Va.). NIH 3T3-L1 cells are a mouse-derived fibroblast cell line that convert into adipocytes under certain conditions. This cell system is well known in the art and is a standard model for the study of adipocyte metabolism. The cells were cultured using well known methods in complete medium (Dulbecco Modified Eagle's Medium (DMEM) (4500 mg glucose/liter) containing 10% fetal bovine serum (FBS)). When the cells were 75% confluent, they were subcultured into multi-well culture plates and allowed to grow to confluency. The differentiation of the cells into adipocytes was initiated by switching to inducing medium (complete medium containing 10 uM dexamethasone, 0.5 mM isobutyrylmethylxanthine, and 10 ug/ml insulin). 1 ug/ml and 0.5 ug/ml doses of capsaicin were added to a number of the culture wells. After 48 hours, the inducing medium was replaced with maintenance medium 1 (complete medium containing insulin (10 ug/ml) with or without capsaicin). After 24 hours, the cells were switched to maintenance medium 2 (complete medium with or without capsaicin). The cultures were followed for up to 10 days for differentiation into adipocytes. The culture medium was replaced every 2 days with a medium of similar composition. The cells were photographed every 2 days to follow their progress. On day 10, the cells were stained with oil red-O (to stain for intracellular lipid) and photographed.

With COc1cc(CNC(=O)CCCC/C=C/C(C)C)ccc1O [capsaicin, trans-8-methyl-N-vanillyl-6-nonenamide] the differentiation into adipocytes (0.5 ug/ml and 1 ug/ml) was “did not become adipocytes”, the “lipid accumulation (oil red-O stain)” value (0.5 ug/ml, FIG. 2) was “significant decrease in lipid accumulation” and the “lipid accumulation (oil red-O stain)” value (1 ug/ml, FIG. 3) was “significant decrease in lipid accumulation”.
